Source: patent US20240341301A1 (The Regents of the University of Michigan, priority 2023, published 2024)

Assays:
murine donor hearts [1] = test: Murine ex-vivo heart perfusion after cold preservation; parameters: species or system mouse; details: for ex vivo donor heart contractility / ex vivo donor heart relaxation: HDAC inhibitor in HTK, 16 hours cold preservation
Method: (§1) Male and female WT or Irg1^−/− mice (Jackson laboratories, Bar Harbor, ME) were anesthetized intraperitoneally with 80 mg/kg ketamine and 5 mg/kg xylazine, anticoagulated with heparin (2,000 U/kg iv), and the heart was rapidly exposed through a sternal incision. The aorta was cannulated and retrograde perfused in-situ with HTK solution±HDAC inhibitors. After cannulation, the heart dissected free, the left atrium was opened. For 4-OI (Cayman Chemical, 25374) experiments, donor mice were treated 4-OI (dissolved in 40% β-Cyclodextrin, 50 mg/kg intraperitoneally) or vehicle control (40% β-Cyclodextrin intraperitoneally) 2 hours prior to donor heart procurement. After dissection, the heart was stored at 4° C. with HTK or HTK with VPA for a pre-designated duration. The hearts were then mounted on a Radnoti mouse Langendorff apparatus (ADInstruments inc., Colorado Springs, CO) in constant-pressure mode (˜70 mmHg) with a modified Krebs-Henseleit buffer (KHB; in mM: 118 NaCl, 4.7 KCl, 1.25 CaCl2), 1.66 MgSO4, 24.88 NaHCO3, 1.18 KH2PO4, 5.55 glucose, and 2.0 Na-pyruvate). A balloon was placed in the LV through the left atrium and left ventricular diastolic pressure was set to ˜8 mmHg at initiation. The heart was perfused with modified Krebs-Henseleit buffer for 30 min to stabilize and then hemodynamics measurements were recorded. Myocardial temperature was maintained at 37° C. LabChart software (ADInstruments inc., Colorado Springs, CO) was used to record ventricular function, perfusion pressures, cardiac chamber temperature and myocardial temperature. After perfusing the heart for 60 minutes, the heart was removed from the ex-vivo perfusion apparatus for specimen collection. Tissue was immediately placed in liquid N2 or treated with 4% formalin.

Irg1 = Irg1 mRNA transcript expression in preserved murine donor hearts; parameters: species or system mouse; details: 16 hours preservation without reperfusion and during ex vivo perfusion
Method: as §1

[2] = cited from earlier work
murine donor hearts [3] = test: Murine donor heart tissue staining and Western blot (oxidative stress, antioxidant proteins, cell death); parameters: species or system mouse; details: donor mice treated with 4-OI
Method: as §1

[4] = system: HL-1 murine cardiomyocytes; test: HL-1 cardiomyocytes in HTK under normoxic or hypoxic conditions, Western blot; format: cell-based, mouse; details: for HO1 protein abundance / NRF2 / SOD1 protein abundance: normoxic and hypoxic conditions
Method: HL-1 murine cardiomyocytes cells (Sigma-Aldrich, SCC065) were cultured in Claycomb Medium (Sigma-Aldrich, 51800C). […] The medium was then changed to cold HTK solution and incubated in an hypoxic incubation chamber (Stem cell technologies). The chamber cold hypoxic conditions consist premixed of 1% Oxygen and 5% Carbon dioxide gas (Cryogenic gases, Detroit MI) with cell culture at 4° C. for 2 hours. After cold preservation culture, the medium was changed to 37° C. DMEM at atmospheric conditions and cells were incubated for an additional 2 hours. Cell lysates were then collected for Western blot analysis.

mice = test: Doxorubicin-induced cardiotoxicity in mice; format: in vivo, mouse; details: 5 mg/Kg doxorubicin for 5 weeks, I.P. every 3.5 days
Method: FIG. 16. […] 6-week mice were treated with 5 mg/Kg doxorubicin for 5 weeks. […] There are improved ejection fraction, stroke volume, and increased heart and lung weight in itaconate-treated groups compared to saline-treated groups.
FIG. 17. […] 6-week mice were treated with 5 mg/Kg doxorubicin for 5 weeks.

H9C2 cardioblast = test: Doxorubicin-treated H9C2 cardioblast; format: cell-based; details: 1 μM doxorubicin
Method: FIG. 18. FIG. 4. […] The doxorubicin-induced cell death were evaluated by cleaved caspase 3 using western blot.
FIG. 19. FIG. 4. […] The 5-hmC level were detected using immunostaining.

[5] = donor mice treated 4-OI 50 mg/kg intraperitoneally 2 hours prior to procurement, 16 hours of preservation, ex vivo perfusion
[6] = compared to saline-treated groups

For `CC(/C=C/C(=O)NO)=C\[C@@H](C)C(=O)c1ccc(N(C)C)cc1` [TSA, Trichostatin A], the “ex vivo donor heart contractility” value (murine donor hearts [1]) was “improved”, the “ex vivo donor heart relaxation” value (murine donor hearts [1]) was “improved” and the Irg1 transcript expression (Irg1) was “increased”. For the same molecule, the water solubility [2] was “poorly water soluble”.

With `C=C(CC(=O)OCCCCCCCC)C(=O)O` [4-OI, 4-octyl itaconate] the cardiac contractility (murine donor hearts [1]; [5]) was “improved”, the cardiac relaxation (murine donor hearts [1]; [5]) was “improved” and the “NRF2 nuclear translocation in cardiac tissue” value (murine donor hearts [3]) was “increased”. The “oxidative DNA damage (8-OHdG fluorescence)” value (murine donor hearts [3]) was “reduced”, the HO1 protein abundance [4] was “enhanced” and the NRF2 [4] was “no changes”. For the same molecule, the SOD1 protein abundance [4] was “enhanced”.

In the case of `C=C(CC(=O)O)C(=O)O` [itaconate], the “murine donor heart function” value (murine donor hearts [1]; after 16 hours of storage) is reported as “improved”, the “antioxidant expression (HO1, SOD1)” value ([4]; itaconate 10 mM in HTK, normoxic (20% O2) and hypoxic (1% O2), 2 hours) is reported as “increased” and the HO1 protein abundance [4] is reported as “enhanced”. For the same molecule, the NRF2 [4] was “no changes”, the SOD1 protein abundance [4] was “enhanced” and the “serum cTnI level” value (mice) was “reduced”. The ejection fraction (mice; [6]) was “improved”, the “heart and lung weight” value (mice; [6]) was “increased” and the stroke volume (mice; [6]) was “improved”. The “cardiomyocyte apoptosis (cleaved caspase 3, western blot)” value (H9C2 cardioblast; 2 mM itaconate, 18 hours) was “reduced” and the “doxorubicin induced 5-hmC accumulation” value (H9C2 cardioblast; 2 mM itaconate, immunostaining) was “reduce”.

In the case of `COc1cccc2c1C(=O)c1c(O)c3c(c(O)c1C2=O)C[C@@](O)(C(=O)CO)C[C@@H]3O[C@H]1C[C@H](N)[C@H](O)[C@H](C)O1` [Doxorubicin, doxorubicin], the 5-hmC level (H9C2 cardioblast; immunostaining) is reported as “induces accumulation”.

For `O=C(CCCCCCC(=O)Nc1ccccc1)NO` [SAHA, Suberoylanilide hydroxamic acid], the “ex vivo donor heart contractility” value (murine donor hearts [1]) was “improved”, the “ex vivo donor heart relaxation” value (murine donor hearts [1]) was “improved” and the Irg1 transcript expression (Irg1) was “increased”. The water solubility [2] was “poorly water soluble”.
